“And” between values parts separate entries of the source, which are not always exact repeats. Equal values may be shown once. Inconclusive results and toxic doses are left out.
Test system: CD2F1 mice, L1210 leukemia ip, survival T/C
Experiment: NCI In Vivo Anticancer Drug Screen. Data for tumor model L1210 Leukemia (intraperitoneal) in CD2F1 (CDF1) mice
Conditions: higher = longer survival
Protocol: The antitumor activity of compounds was measured in mice bearing transplantable tumors. Survival or tumor size were measured and the results are expressed as the measurement made in the treated group (T) divided by the measurement made in the vehicle treated control group (C). The tumor model used in this assay is L1210 Leukemia (intraperitoneal) in CD2F1 (CDF1) mice

[1] = endpoint: mean survival time, dose: 100.0 mg/kg/injection, schedule: Q04DX003 (ip), vehicle: saline with Tween-80
[2] = endpoint: mean survival time, dose: 200.0 mg/kg/injection, schedule: Q04DX003 (ip), vehicle: saline with Tween-80
[3] = endpoint: mean survival time, dose: 400.0 mg/kg/injection, schedule: Q04DX003 (ip), vehicle: saline with Tween-80
[4] = endpoint: mean survival time, dose: 100.0 mg/kg/injection, schedule: Q01DX001 (ip), vehicle: saline with Tween-80
[5] = endpoint: mean survival time, dose: 200.0 mg/kg/injection, schedule: Q01DX001 (ip), vehicle: saline with Tween-80
[6] = endpoint: mean survival time, dose: 400.0 mg/kg/injection, schedule: Q01DX001 (ip), vehicle: saline with Tween-80
[7] = endpoint: mean survival time, dose: 100.0 mg/kg/injection, schedule: Q01DX009 (ip), vehicle: saline with Tween-80
[8] = endpoint: mean survival time, dose: 50.0 mg/kg/injection, schedule: Q01DX009 (ip), vehicle: saline sonified
[9] = endpoint: mean survival time, dose: 100.0 mg/kg/injection, schedule: Q01DX001 (ip), vehicle: saline
[10] = endpoint: mean survival time, dose: 200.0 mg/kg/injection, schedule: Q01DX009 (ip), vehicle: saline with Tween-80
[11] = endpoint: mean survival time, dose: 400.0 mg/kg/injection, schedule: Q01DX009 (ip), vehicle: saline with Tween-80

Cc1cc(NCCN(C(C)C)C(C)C)nc(Nc2nc3cc(Cl)c(Cl)cc3[nH]2)n1
T/C (endpoint: mean survival time, dose: 6.25 mg/kg/injection, schedule: Q01DX009 (ip), vehicle: saline with Tween-80): 100 % of control
T/C (endpoint: mean survival time, dose: 12.5 mg/kg/injection, schedule: Q01DX009 (ip), vehicle: saline with Tween-80): 105 % of control
T/C (endpoint: mean survival time, dose: 25.0 mg/kg/injection, schedule: Q01DX009 (ip), vehicle: saline with Tween-80): 92 % of control
T/C [1]: 87 % of control

NCCS/C=C/C(=O)Oc1ccc(Br)cc1
T/C [1]: 103 % of control
T/C [2]: 96 % of control

CCC(C)C(=O)O[C@H]1C(=O)O[C@@H]2C[C@H]3C(C)=CC(=O)[C@@H](O)[C@]3(C)[C@H]3[C@@H](O)[C@H](O)[C@@]4(C)OC[C@]32[C@@H]14 (some centres not stated)
T/C (endpoint: mean survival time, dose: 2.0 mg/kg/injection, schedule: Q01DX009 (ip), vehicle: saline + alcohol): 104 % of control
T/C (endpoint: mean survival time, dose: 4.0 mg/kg/injection, schedule: Q01DX009 (ip), vehicle: saline + alcohol): 102 % of control

Cc1ncc(COP(=O)(O)O)c(C=NC(C)C(=O)O)c1O.O.[Cu] (configuration not stated)
T/C (endpoint: mean survival time, dose: 6.25 mg/kg/injection, schedule: Q01DX001 (ip), vehicle: saline with Tween-80): 95 % of control
T/C (endpoint: mean survival time, dose: 12.5 mg/kg/injection, schedule: Q01DX001 (ip), vehicle: saline with Tween-80): 92 % of control
T/C (endpoint: mean survival time, dose: 25.0 mg/kg/injection, schedule: Q01DX001 (ip), vehicle: saline with Tween-80): 103 % of control

Cc1cccn(O)c1=NC(=O)c1ccccc1
T/C [1]: 95 % of control
T/C [2]: 105 % of control
T/C [3]: 86 % of control

O=C1OC(=O)C2C3c4ccccc4C(c4c3c(-c3ccccc3)c3ccccc3c4-c3ccccc3)C12 (configuration not stated)
T/C [4]: 87 % of control
T/C [5]: 87 % of control
T/C [6]: 93 % of control

O=S(Nc1ccccc1)Nc1ccccc1
T/C [7]: 95 % of control
T/C [1]: 97 % of control
T/C [2]: 94 % of control
T/C [3]: 97 % of control

COc1cc[n+](CCc2c[nH]c3ccccc23)cc1
T/C (endpoint: mean survival time, dose: 12.5 mg/kg/injection, schedule: Q01DX009 (ip), vehicle: saline sonified): 97 % of control
T/C (endpoint: mean survival time, dose: 12.5 mg/kg/injection, schedule: Q04DX003 (ip), vehicle: saline with Tween-80): 97 % of control
T/C (endpoint: mean survival time, dose: 25.0 mg/kg/injection, schedule: Q01DX009 (ip), vehicle: saline sonified): 98 % of control
T/C (endpoint: mean survival time, dose: 25.0 mg/kg/injection, schedule: Q04DX003 (ip), vehicle: saline with Tween-80): 101 % of control
T/C [8]: 100 % of control
T/C (endpoint: mean survival time, dose: 50.0 mg/kg/injection, schedule: Q04DX003 (ip), vehicle: saline with Tween-80): 104 % of control

C(=NCc1ccccc1)c1ccccc1-c1ccccc1C=NCc1ccccc1
T/C [1]: 97 % of control
T/C [2]: 107 % of control
T/C [3]: 106 % of control

CNC(=O)c1ccc2ccccc2c1
T/C (endpoint: mean survival time, dose: 50.0 mg/kg/injection, schedule: Q01DX001 (ip), vehicle: saline): 106 % of control
T/C [9]: 95 % of control
T/C (endpoint: mean survival time, dose: 200.0 mg/kg/injection, schedule: Q01DX001 (ip), vehicle: saline): 93 % of control
T/C (endpoint: mean survival time, dose: 400.0 mg/kg/injection, schedule: Q01DX001 (ip), vehicle: saline): 95 % of control

NC(C(=O)[O-])C(=O)[O-].NC1CCCCC1N.[Pt+4]
T/C (endpoint: median survival time, dose: 1.0 mg/kg/injection, schedule: Q04DX003 (ip), vehicle: water): 109 % of control
T/C (endpoint: median survival time, dose: 2.0 mg/kg/injection, schedule: Q04DX003 (ip), vehicle: water): 124 % of control

CC([NH-])CC(C)[NH-].O=[N+]([O-])O.O=[N+]([O-])O.[Pt+2] (configuration not stated)
T/C (endpoint: mean survival time, dose: 6.25 mg/kg/injection, schedule: Q04DX003 (ip), vehicle: saline): 154 % of control
T/C (endpoint: mean survival time, dose: 12.5 mg/kg/injection, schedule: Q04DX003 (ip), vehicle: saline): 247 % of control
T/C (endpoint: mean survival time, dose: 25.0 mg/kg/injection, schedule: Q04DX003 (ip), vehicle: saline): 207 % of control

CCC(=O)[O][Bi]([c]1ccccc1)[c]1ccccc1
T/C (endpoint: median survival time, dose: 3.12 mg/kg/injection, schedule: Q01DX009 (ip), vehicle: Klucel (hydroxypropylcellulose) (HPC)): 108 % of control
T/C (endpoint: median survival time, dose: 6.25 mg/kg/injection, schedule: Q01DX009 (ip), vehicle: Klucel (hydroxypropylcellulose) (HPC)): 108 % of control
T/C (endpoint: median survival time, dose: 12.5 mg/kg/injection, schedule: Q01DX009 (ip), vehicle: Klucel (hydroxypropylcellulose) (HPC)): 103 % of control
T/C (endpoint: median survival time, dose: 25.0 mg/kg/injection, schedule: Q01DX009 (ip), vehicle: Klucel (hydroxypropylcellulose) (HPC)): 112 % of control and 111 % of control

O=[N+]([O-])c1ccc(N/N=C(/C(=N/Nc2ccc([N+](=O)[O-])cc2)c2ccccc2)c2ccccc2)cc1
T/C (endpoint: mean survival time, dose: 12.5 mg/kg/injection, schedule: Q01DX009 (ip), vehicle: other): 104 % of control
T/C (endpoint: mean survival time, dose: 25.0 mg/kg/injection, schedule: Q01DX009 (ip), vehicle: other): 101 % of control
T/C (endpoint: mean survival time, dose: 50.0 mg/kg/injection, schedule: Q01DX009 (ip), vehicle: other): 102 % of control
T/C (endpoint: mean survival time, dose: 100.0 mg/kg/injection, schedule: Q01DX009 (ip), vehicle: other): 93 % of control
T/C [1]: 93 % of control
T/C (endpoint: mean survival time, dose: 200.0 mg/kg/injection, schedule: Q01DX009 (ip), vehicle: other): 93 % of control
T/C [2]: 88 % of control
T/C [3]: 88 % of control

O=S1c2ccccc2-c2ccccc21
T/C (endpoint: mean survival time, dose: 100.0 mg/kg/injection, schedule: Q04DX002 (ip), vehicle: saline with Tween-80): 92 % of control
T/C (endpoint: mean survival time, dose: 200.0 mg/kg/injection, schedule: Q04DX002 (ip), vehicle: saline with Tween-80): 100 % of control
T/C (endpoint: mean survival time, dose: 400.0 mg/kg/injection, schedule: Q04DX002 (ip), vehicle: saline with Tween-80): 103 % of control

Cn1ccc(=Nc2ccc(NC(=O)c3ccc(N=c4ccn(C)c5ccc([N+](=O)[O-])cc45)cc3)cc2)cc1
T/C (endpoint: mean survival time, dose: 1.56 mg/kg/injection, schedule: Q01DX009 (ip), vehicle: water): 106 % of control
T/C (endpoint: mean survival time, dose: 3.13 mg/kg/injection, schedule: Q01DX009 (ip), vehicle: water): 112 % of control
T/C (endpoint: mean survival time, dose: 6.25 mg/kg/injection, schedule: Q01DX009 (ip), vehicle: water): 124 % of control
T/C (endpoint: mean survival time, dose: 12.5 mg/kg/injection, schedule: Q01DX009 (ip), vehicle: water): 181 % of control
T/C (endpoint: mean survival time, dose: 25.0 mg/kg/injection, schedule: Q01DX009 (ip), vehicle: water): 227 % of control

CC(=O)CC(OC(=O)c1cc([N+](=O)[O-])cc([N+](=O)[O-])c1)(C(F)(F)F)C(F)(F)F
T/C (endpoint: mean survival time, dose: 100.0 mg/kg/injection, schedule: Q04DX003 (ip), vehicle: Klucel (hydroxypropylcellulose) (HPC)): 91 % of control

COc1cc2c(cc1OC)C(CCN1C(=O)CCC1=O)=NCC2
T/C [8]: 96 % of control
T/C (endpoint: mean survival time, dose: 100.0 mg/kg/injection, schedule: Q01DX009 (ip), vehicle: saline sonified): 102 % of control
T/C (endpoint: mean survival time, dose: 100.0 mg/kg/injection, schedule: Q04DX003 (ip), vehicle: saline sonified): 98 % of control
T/C (endpoint: mean survival time, dose: 200.0 mg/kg/injection, schedule: Q01DX009 (ip), vehicle: saline sonified): 100 % of control
T/C (endpoint: mean survival time, dose: 200.0 mg/kg/injection, schedule: Q04DX003 (ip), vehicle: saline sonified): 103 % of control

[C-]#[N+]CCS(=O)(=O)CC[N+]#[C-]
T/C [7]: 94 % of control
T/C [1]: 102 % of control
T/C [10]: 94 % of control
T/C [2]: 102 % of control
T/C [11]: 100 % of control
T/C [3]: 89 % of control

Oc1ccccc1/C=N/c1nc(-c2ccccc2)cs1.[Co].[O-]c1ccccc1/C=N/c1nc(-c2ccccc2)cs1
T/C [5]: 86 % of control
T/C [6]: 89 % of control

CCCCCCCCCCCCCCCCOc1ccc(C(=O)CC(=O)OC)cc1
T/C [4]: 86 % of control
T/C [5]: 89 % of control
T/C [6]: 91 % of control

Cc1cc(=O)[nH]c(N/N=C/c2ccc(N(C)C)cc2)n1
T/C [7]: 91 % of control
T/C [1]: 104 % of control
T/C [10]: 88 % of control
T/C [2]: 95 % of control
T/C [11]: 86 % of control
T/C [3]: 92 % of control

O=C1N(Cc2ccccc2)CCS1(=O)=O
T/C (endpoint: mean survival time, dose: 75.0 mg/kg/injection, schedule: Q01DX001 (ip), vehicle: other): 96 % of control
T/C (endpoint: mean survival time, dose: 150.0 mg/kg/injection, schedule: Q01DX001 (ip), vehicle: other): 106 % of control

O=C1C2CC=CC2C1(Cl)Cl (configuration not stated)
T/C (endpoint: mean survival time, dose: 75.0 mg/kg/injection, schedule: Q01DX001 (ip), vehicle: saline): 91 % of control
T/C (endpoint: mean survival time, dose: 150.0 mg/kg/injection, schedule: Q01DX001 (ip), vehicle: saline): 94 % of control
T/C (endpoint: mean survival time, dose: 300.0 mg/kg/injection, schedule: Q01DX001 (ip), vehicle: saline): 91 % of control

CC(CCCC#N)[N+](=O)[O-] (configuration not stated)
T/C (endpoint: mean survival time, dose: 5.0 mg/kg/injection, schedule: Q01DX001 (ip), vehicle: saline): 102 % of control
T/C (endpoint: mean survival time, dose: 10.0 mg/kg/injection, schedule: Q01DX001 (ip), vehicle: saline): 96 % of control
T/C (endpoint: mean survival time, dose: 20.0 mg/kg/injection, schedule: Q01DX001 (ip), vehicle: saline): 102 % of control
T/C (endpoint: mean survival time, dose: 40.0 mg/kg/injection, schedule: Q01DX001 (ip), vehicle: saline): 102 % of control
T/C [9]: 98 % of control
